In US20240277658A1, “NLRP3 ACTIVATORS FOR USE IN THE TREATMENT OF INFECTIOUS DISEASES OR CANCER BY ACTIVATING NLRP3 INFLAMMASOME” (ALBERT-LUDWIGS-UNIVERSITÄT FREIBURG, priority 2020, published 2024):
Values joined by “and” are separate entries in the source; they are usually repeats but may differ in a detail not shown here. Equal entries are not always repeated. Where two headings read alike, the source gives them in different places.

How the values were obtained:
NLRP3 inflammasome [1] = target: T1, NLRP3 inflammasome (Mus musculus, UniProt Q8R4B8); assay: IL-1β release from LPS-primed BMDCs (ELISA) as readout of NLRP3 inflammasome activation; format: cell-based
T1 construct: endogenous in cells; host or cells: primary mouse bone marrow-derived dendritic cells (BMDCs), LPS-primed
T1 sequence (Q8R4B8 whole entry): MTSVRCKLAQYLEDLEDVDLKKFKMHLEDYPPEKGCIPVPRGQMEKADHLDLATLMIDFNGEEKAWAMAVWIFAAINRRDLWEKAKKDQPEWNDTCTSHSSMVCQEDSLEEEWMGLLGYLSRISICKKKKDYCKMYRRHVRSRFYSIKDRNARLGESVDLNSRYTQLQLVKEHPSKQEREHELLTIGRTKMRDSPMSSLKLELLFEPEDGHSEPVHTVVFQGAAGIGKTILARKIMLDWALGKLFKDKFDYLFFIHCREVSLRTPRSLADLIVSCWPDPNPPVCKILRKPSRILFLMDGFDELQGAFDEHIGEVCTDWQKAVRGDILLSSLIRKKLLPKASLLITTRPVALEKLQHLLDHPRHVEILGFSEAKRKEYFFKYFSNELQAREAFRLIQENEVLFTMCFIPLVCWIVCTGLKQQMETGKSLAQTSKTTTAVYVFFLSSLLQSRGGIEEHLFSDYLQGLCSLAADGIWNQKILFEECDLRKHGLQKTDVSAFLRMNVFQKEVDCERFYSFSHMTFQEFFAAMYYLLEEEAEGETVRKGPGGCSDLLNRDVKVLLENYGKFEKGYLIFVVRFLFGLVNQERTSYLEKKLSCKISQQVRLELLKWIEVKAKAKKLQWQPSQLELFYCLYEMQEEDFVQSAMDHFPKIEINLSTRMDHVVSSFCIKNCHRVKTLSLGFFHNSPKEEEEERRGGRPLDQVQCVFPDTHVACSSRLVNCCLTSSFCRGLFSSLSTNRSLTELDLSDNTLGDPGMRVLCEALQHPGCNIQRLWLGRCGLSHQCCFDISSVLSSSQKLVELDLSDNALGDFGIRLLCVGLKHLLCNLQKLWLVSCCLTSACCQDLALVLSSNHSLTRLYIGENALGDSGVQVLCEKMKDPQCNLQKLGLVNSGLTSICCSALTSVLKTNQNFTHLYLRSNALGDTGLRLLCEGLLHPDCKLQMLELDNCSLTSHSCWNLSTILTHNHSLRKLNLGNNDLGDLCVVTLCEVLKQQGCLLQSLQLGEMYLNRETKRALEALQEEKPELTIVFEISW
In short: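 NLRP3 inflammasome activation was read out as IL-1β released into the supernatant, measured by ELISA. Murine BMDCs were primed with LPS (50 ng ml^−1, 3 hours), then incubated with compounds for 3 hours, with each condition run in three technical replicates. Nigericin at 5 μM acted as the positive control activator, and IL-1β release was also expressed as a percentage of that control.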

NLRP3 = assay: Inflammasome stimulation (IL-1β, LDH release) in BMDCs from NLRP3 knockout or ASC knockout mice; format: cell-based, mouse; details: IL-1β and LDH release
Experimental: (§1) For canonical inflammasome activation BMDCs after 7-9 days of differentiation were harvested and counted with a Neubauer Chamber (Hecht Assistant) and the concentration was set to 1 Mio cells ml^−1. 100 μl cell suspension per well were seeded in 96-well plates. The cells were primed with 50 ng ml^−1 E. coli K12 ultra-pure LPS for 3 hours and subsequently treated with canonical inflammasome activators or experimental compounds for 3 hours if not indicated differently (incubation time FIG. 4D, 5, 7, 8, 11, 13-18: 3 h, FIG. 12: 4 h). Concentrations of the stimuli were as follows if not indicated differently: 5 μM nigericin, 100 μM imiquimod (also known as R837), 100 μM CL097, 100 μM R848, […] poly(dA:dT), 300 μg ml^−1 MSU. If an inhibitor was used before stimuli treatment, the inhibitor was added after 2.5 hours of priming and it was incubated for 30 minutes before inflammasome activation. Inhibitors were used as follows: 3 μM MCC950, 45 mM KCl, 30 μM ebselen (2-Phenyl-1,2-benzoselenazol-3-one), 5 μM cytochalasin D (see FIGS. 8, 11, 12 and 17).
(§2) All inflammasome stimulations were performed in three technical replicates for each condition. Lytic cell death was determined via LDH release (see FIGS. 8, 13-16 and 18), cytokines quantified in cell-free supernatants via ELISA (see FIGS. 4D, 7-9, 11-19) and cell lysates and supernatants analyzed via immunoblotting (see FIGS. 5A and 5B) as previously described in detail (Gross, Olaf, 2012 “Measuring the inflammasome”, Methods in molecular biology, Clifton, N.J., 844, pp. 199-222. Schneider, Katharina S.; Thomas, Christina J.; Groß, Olaf, 2013, “Inflammasome activation and inhibition in primary murine bone marrow-derived cells, and assays for IL-1α, IL-1β, and caspase-1”, Methods in molecular biology, Clifton, N.J., 1040, pp. 117-135).

NLRP3 inflammasome [2] = target: T1, NLRP3 inflammasome; assay: Inflammasome stimulation of BMDCs after pre-incubation with inhibitors (MCC950, KCl, ebselen, cytochalasin D); format: cell-based; details: 50 mM extracellular KCl; FIGS. 11 and 17
Experimental: as §1, with “Inhibitors were used as follows: 3 μM MCC950, 45 mM KCl, 30 μM ebselen (2-Phenyl-1,2-benzoselenazol-3-one), 5 μM cytochalasin D (see FIGS. 8, 11, 12 and 17).” left out
as §2

BMDCs = assay: LDH release (lytic cell death, pyroptosis) from LPS-primed BMDCs; format: cell-based, mouse; details: for cytotoxicity at 25 µM / cytotoxicity at 50 µM / cytotoxicity at 100 µM / cytotoxicity at 20 µM / cytotoxicity at 40 µM / cytotoxicity at 80 µM / cytotoxicity at 5 µM: Mus musculus, BMDC; for Average (% positive control): LDH release
In short: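 Mouse BMDCs (7-9 days differentiated, GM-CSF) primed with 50 ng ml^−1 E. coli K12 LPS for 3 hours, then exposed 3 hours to compounds (50 μM unless indicated) or activators (nigericin 5 μM; R837, CL097 100 μM). Lytic death measured as LDH release by colorimetric assay, triplicate wells.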

O=C(Nc1ccc2ncccc2c1)Nc1ccc2ncccc2c1 [EN-A, 1,3-di(quinolin-6-yl)urea]
Average IL-1β (NLRP3 inflammasome [1]; section 1.2, 25 μM): 4.696 ng/mL | Average IL-1β (NLRP3 inflammasome [1]; section 1.2, 50 μM): 5.026 ng/mL | Average IL-1β (NLRP3 inflammasome [1]; section 1.2, 100 μM): 5.084 ng/mL | Average (% positive control) (NLRP3 inflammasome [1]; section 1.2, IL-1β release, 25 μM, positive control EN22 25 μM): 93.430 % positive control | Average (% positive control) (NLRP3 inflammasome [1]; section 1.2, IL-1β release, 50 μM, positive control EN22 25 μM): 100.007 % positive control | Average (% positive control) (NLRP3 inflammasome [1]; section 1.2, IL-1β release, 100 μM, positive control EN22 25 μM): 101.159 % positive control | IL-1β (NLRP3 inflammasome [1]; section 1.2, single replicates, 25 μM): 5.256 ng/mL and 4.576 ng/mL and 4.256 ng/mL | IL-1β (NLRP3 inflammasome [1]; section 1.2, single replicates, 50 μM): 4.819 ng/mL and 5.538 ng/mL and 4.722 ng/mL | IL-1β (NLRP3 inflammasome [1]; section 1.2, single replicates, 100 μM): 5.256 ng/mL and 5.328 ng/mL and 4.669 ng/mL | characteristics of inflammasome activation in cells isolated from NLRP3 knockout mice (NLRP3): do not occur | dependence of NLRP3 inflammasome activation on potassium efflux from the cell (NLRP3 inflammasome [2]): independently of potassium efflux | cytotoxicity at 25 µM (BMDCs; section 1.2, 25 μM, read-out: Average LDH release (% of max.)): 33.1% | cytotoxicity at 50 µM (BMDCs; section 1.2, 50 μM, read-out: Average LDH release (% of max.)): 32.4% | cytotoxicity at 100 µM (BMDCs; section 1.2, 100 μM, read-out: Average LDH release (% of max.)): 33% | cytotoxicity at 25 µM (BMDCs; section 1.2, single replicates, 25 μM, read-out: LDH release (% of max.)): 33.7% | cytotoxicity at 50 µM (BMDCs; section 1.2, single replicates, 50 μM, read-out: LDH release (% of max.)): 32.1% | cytotoxicity at 100 µM (BMDCs; section 1.2, single replicates, 100 μM, read-out: LDH release (% of max.)): 34.8% | Average (% positive control) (BMDCs; section 1.2, 25 μM, positive control EN22 25 μM): 110.581 % positive control | Average (% positive control) (BMDCs; section 1.2, 50 μM, positive control EN22 25 μM): 108.112 % positive control | Average (% positive control) (BMDCs; section 1.2, 100 μM, positive control EN22 25 μM): 110.157 % positive control

COc1ccc(NC(=O)Nc2ccc3ncccc3c2)cc1 [JB010, 1-(4-methoxyphenyl)-3-(quinolin-6-yl)urea]
Average IL-1β (NLRP3 inflammasome [1]; 20 μM): 2.404 ng/mL | IL-1β (NLRP3 inflammasome [1]; 20 μM, individual replicate values): 2.200 ng/mL and 3.078 ng/mL and 1.934 ng/mL | Average IL-1β (NLRP3 inflammasome [1]; 40 μM): 2.655 ng/mL | IL-1β (NLRP3 inflammasome [1]; 40 μM, individual replicate values): 2.727 ng/mL and 2.742 ng/mL and 2.498 ng/mL | Average IL-1β (NLRP3 inflammasome [1]; 80 μM): 3.966 ng/mL | IL-1β (NLRP3 inflammasome [1]; 80 μM, individual replicate values): 2.757 ng/mL and 3.613 ng/mL and 5.527 ng/mL | Average (% positive control) (NLRP3 inflammasome [1]; IL-1β, 20 μM, positive control EN22): 122.814 % positive control | Average (% positive control) (NLRP3 inflammasome [1]; IL-1β, 40 μM, positive control EN22): 135.661 % positive control | Average (% positive control) (NLRP3 inflammasome [1]; IL-1β, 80 μM, positive control EN22): 202.590 % positive control | characteristics of inflammasome activation in cells isolated from NLRP3 knockout mice (NLRP3): do not occur | Average (% positive control) (BMDCs; 20 μM, positive control EN22 20 μM): 44.689 % positive control | Average (% positive control) (BMDCs; 40 μM, positive control EN22 20 μM): 62.649 % positive control | Average (% positive control) (BMDCs; 80 μM, positive control EN22 20 μM): 77.427 % positive control | cytotoxicity at 20 µM (BMDCs; 20 μM, individual replicate values, read-out: LDH release (% of max.)): 24.4% | cytotoxicity at 20 µM (BMDCs; 20 μM, read-out: Average LDH release (% of max.)): 23.8% | cytotoxicity at 40 µM (BMDCs; 40 μM, individual replicate values, read-out: LDH release (% of max.)): 31.4% | cytotoxicity at 40 µM (BMDCs; 40 μM, read-out: Average LDH release (% of max.)): 33.4% | cytotoxicity at 80 µM (BMDCs; 80 μM, individual replicate values, read-out: LDH release (% of max.)): 38.6% | cytotoxicity at 80 µM (BMDCs; 80 μM, read-out: Average LDH release (% of max.)): 41.2%

O=C(Nc1cc(C(F)F)ns1)Nc1cc(F)ncc1CO [BRM/BRG1 ATP Inhibitor-1, reference compound]
Average IL-1β (NLRP3 inflammasome [1]; section 1.3, 5 μM): 3.664 ng/mL | Average IL-1β (NLRP3 inflammasome [1]; section 1.3, 50 μM): 5.980 ng/mL | Average IL-1β (NLRP3 inflammasome [1]; section 1.3, 100 μM): 5.023 ng/mL | Average (% positive control) (NLRP3 inflammasome [1]; section 1.3, IL-1β release, 5 μM, positive control nigericin 5 μM): 116.295 % positive control | Average (% positive control) (NLRP3 inflammasome [1]; section 1.3, IL-1β release, 50 μM, positive control nigericin 5 μM): 189.7925 % positive control | Average (% positive control) (NLRP3 inflammasome [1]; section 1.3, IL-1β release, 100 μM, positive control nigericin 5 μM): 159.415 % positive control | IL-1β (NLRP3 inflammasome [1]; section 1.3, single replicates, 5 μM): 3.556 ng/mL and 3.899 ng/mL and 3.537 ng/mL | IL-1β (NLRP3 inflammasome [1]; section 1.3, single replicates, 50 μM): 4.561 ng/mL and 6.642 ng/mL and 6.737 ng/mL | IL-1β (NLRP3 inflammasome [1]; section 1.3, single replicates, 100 μM): 7.150 ng/mL and 3.831 ng/mL and 4.087 ng/mL | characteristics of inflammasome activation in cells isolated from NLRP3 knockout mice (NLRP3): do not occur | cytotoxicity at 5 µM (BMDCs; section 1.3, 5 μM, read-out: Average LDH release (% of max.)): 16.6% | cytotoxicity at 50 µM (BMDCs; section 1.3, 50 μM, read-out: Average LDH release (% of max.)): 35.4% | cytotoxicity at 100 µM (BMDCs; section 1.3, 100 μM, read-out: Average LDH release (% of max.)): 24.8% | cytotoxicity at 5 µM (BMDCs; section 1.3, single replicates, 5 μM, read-out: LDH release (% of max.)): 14.1% | cytotoxicity at 50 µM (BMDCs; section 1.3, single replicates, 50 μM, read-out: LDH release (% of max.)): 38.5% | cytotoxicity at 100 µM (BMDCs; section 1.3, single replicates, 100 μM, read-out: LDH release (% of max.)): 27% | Average (% positive control) (BMDCs; section 1.3, 5 μM, positive control nigericin 5 μM): 30.921 % positive control | Average (% positive control) (BMDCs; section 1.3, 50 μM, positive control nigericin 5 μM): 65.959 % positive control | Average (% positive control) (BMDCs; section 1.3, 100 μM, positive control nigericin 5 μM): 46.154 % positive control
